Measurements reported in US20070248967A1, “Reporter Assay Using Secrectory Luminescent Enzymes” (NATIONAL INSTITUTE OF ADVANCED INDUSTRIAL SCIENCE, priority 2005, published 2007).

Tests used:
CLuc [1] = settings: final concentration in reaction solution, 100 mM Tris-HCl pH 7.4; FIG. 3
Method: In addition, a stock solution of the culture supernatant of the transformant comprising pCLuRA-TDH3 was separately serial-diluted 10-fold, 100-fold, 1000-fold, and 10000-fold with an SD medium containing a 100 mM phosphate buffer solution so that the resulting diluted culture supernatants were used. Specifically, the concentration of the culture supernatant stock solution was determined to be 100% such that 10-fold, 100-fold, 1000-fold, and 10000-fold diluted culture supernatants had supernatant concentrations of 10%, 1%, 0.1%, and 0.01%, respectively.
Then, CLuc activity measurement was carried out as with the case of Example 1.
In FIG. 3, plots indicate results obtained by using culture supernatants that had been serial-diluted with a culture supernatant stock solution (100%) with reaction solutions with different final concentrations of luciferin.

CLuc [2] = experiment: Influences of various chemical substances on CLuc activity measurement; assay type: biochemical, Cypridina noctiluca; settings: highly concentrated chemical substance added to culture supernatant; FIG. 6
Description: For the CLuc activity measurement, an LB960 luminometer (Berthold) was used.
The measurement values were divided by absorbance of the culture solution at 600 nm such that CLuc activity subjected to a correction of the number of yeast cell bodies was obtained.
Influences of chemical substances on CLuc activity measurement were examined, as such substances coexist with yeast culture supernatants upon CLuc activity measurement following the secretory expression of CLuc in yeasts.
Chemical substances (2 μl) that had been adjusted to have different concentrations were separately added to 20 μl of the prepared culture supernatant, followed by CLuc activity measurement.
The relative residual activity of each sample is represented by the mean value and the standard deviation on the condition that the CLuc activity of a sample to which a chemical substance was not added is determined to be 100%.

CUP1 promoter = experiment: CuSO4 induction experiment, reporter assay using mCLuc or β-galactosidase; assay type: cell-based, Saccharomyces cerevisiae; settings: 0.025 mM CuSO4-containing medium, pmCLuRA-CUP1 (8 hours) / pGALuRA-CUP1 (16 hours); FIGS. 13A, 13B
Method: It has been known that the expression of the CUP1 gene (systematic gene name: YHR053C) of Saccharomyces cerevisiae is induced in the presence of copper ions (Gene, 48, 13-22 (1986)). That is, a CUP1 promoter is a copper-ion-inducible promoter. Thus, with the use of pmCLuRA-CUP1, it was examined whether or not such induction would be observed in the case of mCLuc. In addition, a similar experiment was carried out using β-galactosidase. The results of both experiments were compared and examined.
Three clones of a transformant comprising pmCLuRA-CUP1 and those of a transformant comprising pGALuRA-CUP1 described above were separately introduced into a synthetic liquid medium (SD+KHLadeW 200 mM KPi). Each resultant was shake-cultured overnight at 30° C. until the stationary phase.
Subsequently, 5 μl of the culture solution containing a transformant comprising pmCLuRA-CUP1 was introduced into each well of a 96-deep well plate, with 1 ml of a 0.025 mM CuSO4-containing synthetic liquid medium (SD+KHLadeW 200 mM KPi) or a CuSO4-free synthetic liquid medium (SD+KHLadeW 200 mM KPi) having been added to such well. This was followed by shake culture at 30° C. 8 hours after the initiation of culture, a portion of the culture solution was recovered, followed by measurement of absorbance at 600 nm (OD600) and relative light units (RLU) from a luminometer in accordance with the method in Example 1. […]

GAL1 promoter = experiment: Galactose induction experiment, reporter assay using mCLuc or β-galactosidase; assay type: cell-based, Saccharomyces cerevisiae; settings: 2% galactose-containing medium without glucose, 32 hours, pmCLuRA-GAL1 / pGALuRA-GAL1; FIGS. 14A, 14B
Method: It has been known that the expression of GAL1 gene (systematic gene name: YBR020W) of Saccharomyces cerevisiae is induced in the absence of glucose and the presence of galactose (West, R. W. J. et al., Mol. Cell. Biol., 4: 2467-2478 (1984)). That is, a GAL1 promoter is a galactose-inducible promoter. Thus, with the use of pmCLuRA-GAL1, it was examined whether or not such induction would be observed in the case of mCLuc. In addition, a similar experiment was carried out using β-galactosidase. The results of both experiments were compared and examined.
Three clones of a transformant comprising pmCLuRA-GAL1 and those of a transformant comprising pGALuRA-GAL1 described above were separately introduced into a synthetic liquid medium (SD+KHLadeW 200 mM KPi). […]
Subsequently, 20 μl of the culture solution containing a transformant comprising pmCLuRA-GAL1 was introduced into each well of a 96-deep well plate, with 1 ml of a 2% galactose-containing synthetic liquid medium (SC+KHLadeW (prepared by removing glucose from SD+KHLWade in Example 1) 200 mM KPi) or a synthetic liquid medium (SD+KHLadeW 200 mM KPi) having been added to such well. […] 32 hours after the initiation of culture, a portion of the culture solution was recovered, followed by measurement of absorbance at 600 nm (OD600) and relative light units (RLU) from a luminometer in accordance with the method in Example 1. […]

[3] = Stability of CLuc in yeast culture supernatants; assay type: physicochemical
Method: The prepared culture supernatants were incubated at 0° C., 25° C., 40° C., and 50° C. for 0, 15, 30, and 60 minutes, respectively, followed by CLuc activity measurement.
In FIG. 4, each plot indicates the mean value and the standard deviation of relative residual activities of each sample subjected to incubation at a given temperature for a given period of time. The vertical axis denotes the relative residual activity based on the CLuc activity (100%) of a sample that had not been incubated.

[4] = Stability of CLuc activity after sampling of culture solutions; assay type: physicochemical; settings: culture solution incubated at 25° C. for 30 minutes; FIG. 8
Method: Thus, in order to examine the stability of CLuc activity after sampling of culture solutions, a transformant comprising pCLuRA-TDH3 prepared in Example 1 was cultured as with the case of Example 1. Then, the yeast culture solution was partially collected (sampling), followed by incubation at 25° C. for 0, 10, 20, and 30 minutes. After incubation, the CLuc activity of each culture solution sample was measured as with the case of Example 1.
In FIG. 8, CLuc activity is shown as the relative residual activity based on the CLuc activity of a sample that was measured immediately after sampling (100%).

## CC[C@H](C)c1nc2c(CCCNC(=N)N)[nH]c(-c3c[nH]c4ccccc34)cn-2c1=O [Cypridina luciferin]
CLuc [1]
  final luciferin concentration at which CLuc activity reaches a saturation point: ≥ 1 µM

## O=S(=O)([O-])[O-].[Cu+2] [CuSO4]
CLuc [2]
  inhibition of the enzyme activity of CLuc (relative residual activity): inhibited
CUP1 promoter
  transcription induction of the CUP1 promoter: transcription induction

## O=C[C@H](O)[C@@H](O)[C@@H](O)[C@H](O)CO [galactose]
GAL1 promoter
  transcription induction of the GAL1 promoter: transcription induction

## CCO [ethanol]
CLuc [2]
  inhibition of the enzyme activity of CLuc (relative residual activity): inhibited

B1: CLuc: Cypridina noctiluca-secretory luciferase (SEQ ID NO: 2); secreted from yeast as αCLuc with α-factor signal peptide (protein, listed as Cypridina noctiluca)
chain: MKTLILAVALVYCATVHCQDCPYEPDPPNTVPTSCEAKEGECIDSSCGTCTRDILSDGLCENKPGKTCCRMCQYVIECRVEAAGWFRTFYGKRFQFQEPGTYVLGQGTKGGDWKVSITLENLDGTKGAVLTKTRLEVAGDIIDIAQATENPITVNGGADPIIANPYTIGEVTIAVVEMPGFNITVIEFFKLIVIDILGGRSVRIAPDTANKGMISGLCGDLKMMEDTDFTSDPEQLAIQPKINQEFDGCPLYGNPDDVAYCKGLLEPYKDSCRNPINFYYYTISCAFARCMGGDERASHVLLDYRETCAAPETRGTCVLSGHTFYDTFDKARYQFQGPCKEILMAADCFWNTWDVKVSHRNVDSYTEVEKVRIRKQSTVVELIVDGKQILVGGEAVSVPYSSQNTSIYWQDGDILTTAILPEALVVKFNFKQLLVVHIRDPFDGKTCGICGNYNQDFSDDSFDAEGACDLTPNPPGCTEEQKPEAERLCNSLFAGQSDLDQKCNVCHKPDRVERCMYEYCLRGQQGFCDHAWEFKKECYIKHGDTLEVPDECK
modifications: α-factor signal peptide
[3]; culture supernatant incubated at 0, 25, 40, 50° C. for 0-60 minutes, FIG. 4
  stability of CLuc as an enzyme (relative residual activity): highly stable
[3]; culture supernatant, room temperature, 15 minutes after sampling
  stability of CLuc at room temperature: stable
[4]
  change in CLuc activity after sampling (relative residual activity): almost no change
